Results reported in patent US20040209283A1, “Continuous-read assay for the detection of de novo HCV RNA polymerase activity” (Pfizer Inc., priority 2002, published 2004).
Each block holds one compound with its values, some of them ahead of it.

Assays:
double-stranded NR-2 = test: Binding of PicoGreen to double-stranded NR-2 at varying buffer component concentrations (fluorescence intensity); details: for effect on the binding of PicoGreen to the double-stranded template: at the concentrations tested; for Fluorescence Intensity (% of control ± SD; n = 2): 7 nM double-stranded NR2, 600 nM PicoGreen
Protocol: To assess the effect of buffer component concentration on the binding of PicoGreen® to double-stranded NR-2, mixtures containing 7 nM double-stranded NR2, 600 nM PicoGreen®, and varying concentrations of the buffer components were prepared, and the fluorescence intensities of these mixtures were measured. These mixtures were prepared using between 4 fold less to 1.25 to 2 fold more of the individual buffer components (relative to the amount of the components used in the reactions described in Example 1).

C delta 21 NS5B = test: Continuous-read fluorescence assay of de novo NS5B polymerase activity; type: biochemical, Hepatitis C virus (HCV)
Protocol: Reactions were prepared by first placing 0.5 μL of 100% DMSO into the wells of an assay plate (Corning, black, 384-well, NBS #3654). In reactions in which modulators or inhibitors of RNA polymerase activity are to be identified, a test compound may be added to the DMSO. A solution (Solution-1) containing 162 nM of C delta 21 NS5B and 28 nM NR-2 in an assay buffer comprising 20 mM Tris-HCl, pH 7.5; 100 mM ammonium acetate; 2 mM MnCl2; 10 mM DTT; and 2 mM CHAPS, was then prepared and incubated at ambient temperature for a minimum of 15 minutes. During this incubation, a second solution (Solution-2) was prepared by mixing 76 nM of PicoGreen® with 2.7 μM UTP, 2.7 μM CTP, 2.7 μM ATP, 67 μM GTP in the assay buffer that is described above. Next, 10 μL of Solution-1 was added to the wells of the assay plate containing DMSO and the plate was incubated for 15 minutes at ambient temperature. […]
The reactions were monitored on a LJL Analyst (Molecular Devices Corp.; Sunnyvale, Calif.), which excited the PicoGreen® at 485 nm and detected PicoGreen® fluorescence at 530 nm.
The effect of increasing concentrations of PicoGreen® on reaction kinetics was also assessed. […] The calculated initial velocity (v0=span x kexp) increased as the concentration of PicoGreen® was increased from 50 to 600 nM, and appeared to plateau at between 600 and 800 nM PicoGreen® (FIG. 5C).

[1] = component final concentration 0.5 mM
[2] = component final concentration 1 mM
[3] = component final concentration 2 mM
[4] = component final concentration 4 mM

Structure (SMILES): C[C@H](CCC(=O)NCCC[N+](C)(C)CCCS(=O)(=O)[O-])[C@H]1CC[C@H]2[C@@H]3[C@H](O)C[C@@H]4C[C@H](O)CC[C@]4(C)[C@H]3C[C@H](O)[C@]12C [CHAPS]
- effect on the binding of PicoGreen to the double-stranded template (double-stranded NR-2): Neither DTT nor chaps affected the binding
- Fluorescence Intensity (% of control ± SD; n = 2) (double-stranded NR-2; [1]): 98 ± 3 % of control
- Fluorescence Intensity (% of control ± SD; n = 2) (double-stranded NR-2; [2]): 96 ± 1 % of control
- Fluorescence Intensity (% of control ± SD; n = 2) (double-stranded NR-2; [3]): 96 ± 1 % of control
- Fluorescence Intensity (% of control ± SD; n = 2) (double-stranded NR-2; [4]): 102 ± 1 % of control

Structure (SMILES): CN(C)CCCN(CCCN(C)C)c1cc(C=C2Sc3ccccc3N2C)c2ccccc2[n+]1-c1ccccc1 [PicoGreen®, reference compound]
- change of experimental rate constant (kexp) of the first-order reaction (C delta 21 NS5B; at 600 nM PicoGreen): slightly less than a two-fold decrease

- inhibition of the binding of PicoGreen to the template (double-stranded NR-2; at 2 mM): approximately 35%
- inhibition of the binding of PicoGreen to the template (double-stranded NR-2; at 4 mM): ~55%
- Fluorescence Intensity (% of control ± SD; n = 2) (double-stranded NR-2; [1]): 96 ± 2 % of control
- Fluorescence Intensity (% of control ± SD; n = 2) (double-stranded NR-2; [2]): 82 ± 1 % of control
- Fluorescence Intensity (% of control ± SD; n = 2) (double-stranded NR-2; [3]): 65 ± 1 % of control
- Fluorescence Intensity (% of control ± SD; n = 2) (double-stranded NR-2; [4]): 45 ± 2 % of control
Structure (SMILES): [Cl][Mn][Cl] [MnCl2]

- Fluorescence Intensity (% of control ± SD; n = 2) (double-stranded NR-2; component final concentration 2.5 mM): 98 ± 5 % of control
- Fluorescence Intensity (% of control ± SD; n = 2) (double-stranded NR-2; component final concentration 5 mM): 100 ± 2 % of control
- Fluorescence Intensity (% of control ± SD; n = 2) (double-stranded NR-2; component final concentration 10 mM): 100 ± 1 % of control
- Fluorescence Intensity (% of control ± SD; n = 2) (double-stranded NR-2; component final concentration 20 mM): 96 ± 3 % of control
Structure (SMILES): O[C@@H](CS)[C@@H](O)CS [DTT]
- effect on the binding of PicoGreen to the double-stranded template (double-stranded NR-2): Neither DTT nor chaps affected the binding

Structure (SMILES): CC(=O)O.N [Ammonium Acetate]
- effect on NS5B activity (C delta 21 NS5B; 100 mM ammonium acetate): appeared to enhance NS5B activity
- inhibition of PicoGreen binding (double-stranded NR-2; at 100 mM): 5%
- inhibition of PicoGreen binding (double-stranded NR-2; at 125 mM): 10%
- Fluorescence Intensity (% of control ± SD; n = 2) (double-stranded NR-2; component final concentration 12.5 mM): 105 ± 1 % of control
- Fluorescence Intensity (% of control ± SD; n = 2) (double-stranded NR-2; component final concentration 25 mM): 103 ± 1 % of control
- Fluorescence Intensity (% of control ± SD; n = 2) (double-stranded NR-2; component final concentration 50 mM): 109 ± 1 % of control
- Fluorescence Intensity (% of control ± SD; n = 2) (double-stranded NR-2; component final concentration 100 mM): 95 ± 1 % of control
- Fluorescence Intensity (% of control ± SD; n = 2) (double-stranded NR-2; component final concentration 125 mM): 89 ± 2 % of control
